Measurements taken from patent US5246935A, “Piperazinyl derivatives and methods of treating central nervous system ailments relating to the 5-HT2 receptor system” (Novo Nordisk A/S, priority 1990, dated 1993).
Structures can show the parent of a compound that is named as a salt.

Tests used:
5HT2 receptor = biological target: T1, 5HT2 receptor (Rattus norvegicus, UniProt P14842); test: In Vitro Inhibition of 5HT2-Receptor Binding (3H-Ketanserine); parameters: species or system rat (male Wistar); details: 3H-Ketanserine 0.4 nM, rat frontal cortex, 37° C., 15 min
T1 construct: incubated with isolated cell-membrane fragments; from tissue; host or cells: frontal cortex of male Wistar rats (membranes)
T1 sequence (P14842 whole entry, the tested form may be a part): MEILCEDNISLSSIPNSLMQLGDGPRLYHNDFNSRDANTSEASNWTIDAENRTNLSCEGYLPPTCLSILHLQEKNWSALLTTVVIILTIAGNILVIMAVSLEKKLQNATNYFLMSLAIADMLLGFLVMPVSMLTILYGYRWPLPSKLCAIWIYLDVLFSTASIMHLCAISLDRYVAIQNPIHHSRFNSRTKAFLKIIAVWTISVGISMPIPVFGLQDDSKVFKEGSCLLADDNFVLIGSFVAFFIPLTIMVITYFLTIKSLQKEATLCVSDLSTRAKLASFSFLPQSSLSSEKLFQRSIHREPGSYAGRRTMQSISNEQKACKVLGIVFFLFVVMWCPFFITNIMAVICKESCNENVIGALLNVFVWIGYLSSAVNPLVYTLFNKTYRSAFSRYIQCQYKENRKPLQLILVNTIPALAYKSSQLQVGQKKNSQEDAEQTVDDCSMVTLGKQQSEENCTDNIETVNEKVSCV
Method: In Vitro Inhibition of 5HT2 -Receptor Binding
Radioactive-labelled ligand ^3 H-Ketanserine is incubated with isolated cell-membrane fragments at 37° C. for a given period of time. Following completed incubation, the incubate is filtered through GF/B filters which are rinsed after filtration to remove unspecifically adhered radioactivity. As opposed to low-molecular compounds, membrane fragments are not rinsed through the filters, the radioactivity bound to the filters indicates the amount of ligand bound specifically as well as non-specifically to the membranes.
The preparation is made in ice bath. Polytron kinematica is rinsed with milli-Q-H2 O before and after use. Male Wistar rats, 150-200 g are decapitated. Frontal cortex is removed quickly and weighed (approx. 200 mg). Frontal cortex is added to centrifuging vial containing 10 ml ice-cold D2 buffer. Homogenization applying polytron kinematica (homogenizer) setting 6 for 20 sec. The homogenizer is rinsed with 10 ml D2 buffer in another centrifuging vial. The 10 ml rinsing buffer is added to the tissue vial. Centrifuged at 18,000 rpm for 10 min. at 4° C. Final pellet is transferred to 125×vol. of same buffer. (Ex. 200 mg in 25 ml D2 buffer). Can be stored for approx. 30 min. at 0° C.
25 μl ^3 H-Ketanserine (0.4 nM)
25 μl test substance/H2 O/blind cyproheptadine (2 μM)
Incubation for 15 min. at 37° C.
10 ml ice-cold 0.9% NaCl is added to the tubes. Filtration is performed through GF/B filters (use gloves). This procedure is repeated. Filters are placed in counting vials, and 4 ml opti- flour is added (prepare in fume cupboard, use gloves). Counting at window 0-19 of the beta-counter (Pachard). Note that receptor box and lid are rinsed thoroughly in H2 O after use to avoid contamination. Further the analytical site is cleaned carefully every day.
Dissolved in H2 O, EtOH, MeOH or DMSO and further diluted in H2 O. The 5HT2 binding will stand concentrations of up to approx. 5% of these solvents without affecting the binding. Most stock solutions are stable at 4° C. Attention should, however, be paid to any precipitation, change in colour etc. Test-substance dilutions are always made fresh every day. When weighing out test substance, it is attempted to weigh out approx. 1 mg of substance. Less than 0.8 mg must never be weighed out and only infrequently more than 2 mg (for economy reasons) dependent, however, on conc./assay.

Alpha1 receptor = test: In-Vitro Inhibition of Alpha1-Receptor Binding (3H-Prazosin); parameters: species or system rat (male Wistar); details: 3H-Prazosin 0.5 nM, rat cortex, 25° C., 30 min; read-out: Receptor binding IC50 α1
Method: In-Vitro Inhibition of Alpha1 -Receptor Binding, Radioactive-labelled ligand ^3 H-Prazosin is incubated with isolated cell-membrane fragments at 25° C. for a given period of time. Following completed incubation, the incubate is filtered through GF/B filters, which are rinsed following filtration to remove unspecifically adhered radioactivity. As opposed to low- molecular compounds, membrane fragments are not rinsed through the filters, the radioactivity bound to the filters indicates the amount of ligand bound specifically as well as nonspecifically to the membranes. The procedure is performed in ice bath. Polytron kinematica is rinsed with milli-Q-H2 O before and after use. Male Wistar rats, 150-200 g are decapitated, cortex is removed quickly and weighed (approx. 500 mg). Cortex is transferred to a centrifuging vial containing 10 ml ice-cold D2 buffer. Homogenization applying polytron kinematica (homogenizer) setting 6 for 20 sec. The homogenizer is rinsed with 10 ml D2 buffer in another centrifuging vial. The 10 ml rinsing buffer is added to the tissue vial. Centrifugation at 18,000 rpm for 12 min. at 4° C. This is repeated once. Final pellet is added to 400×vol. of same buffer. (Ex. 500 mg cortex in 200 ml D2 buffer). Can be stored for 30 min. at 0° C. 2,000 μl tissue 25 μl ^3 H-Prazosin (0.5 nM) 25 μl test substance/H2 O/blind Phentolamine (10 μM) Incubation for 30 min. at 25° C. 10 ml of ice-cold 0.9% NaCl is added to the tubes and filtered through GF/B filters (use gloves). This procedure is repeated. Filters are placed in counting vials and 4 ml opti-flour is added (perform in fume cupboard, use gloves). Counting is performed at window 0-19 of the betacounter (Pachard). […] Further, the analytical site is cleaned carefully every day after use. Dissolved in H2 O, EtOH, MeOH or DMSO and further diluted in H2 O. […] Most stock solutions are stable at 4° C. Attention should, however, be paid to any precipitation, change in colour etc. Test-substance dilutions are always prepared fresh every day. When weighing out test substances, it is attempted to weigh out approx. 1 mg of substance. Less than 0.8 mg must never be weighed out and only infrequently more than 2 mg (for economy reasons) dependent, however, on conc./ass.

SMILES | IC50 (5HT2 receptor) [nM] | IC50 (Alpha1 receptor) [nM]
COc1ccc2cccc(N3CCN(CCCOC(=O)Nc4ccc5c(c4)OCO5)CC3)c2c1 [Example 34, 1-(7-Methoxy-1-naphthyl)-4-[3-(3,4-methylenedioxyphenylcarbamoyloxy)propyl]piperazine, HCl] | 13 | 144
COc1cc(NC(=O)OCCCN2CCN(c3ccc(F)cc3)CC2)cc(OC)c1OC [Example 8, 4-(4-Fluorophenyl)-1-[3-(3,4,5-trimethoxyphenylcarbamoyloxy)propyl]piperazine, hydrochloride] | 10 | 61
O=C(Nc1ccc2ncsc2c1)OCCCN1CCN(c2ccc(Cl)cc2)CC1 [Example 19, 4-(4-Chlorophenyl)-1-[3-(6-benzothiazolylcarbamoyloxy)propyl]piperazine, hydrochloride] | 22 | 122
COc1cc(NC(=O)OCCCN2CCN(c3ccccc3Cl)CC2)cc(OC)c1OC.Cl [Example 3, 4-(2-Chlorophenyl)-1-[3-(3,4,5-trimethoxyphenylcarbamoyloxy)propyl]piperazine, hydrochloride] | 7.5 | 45
